From ChEMBL document CHEMBL4613284, “A Class of Potent Inhibitors of the HIV-1 Nucleocapsid Protein Based on Aminopyrrolic Scaffolds” (ACS Med Chem Lett, 2020)
The source made the active and inactive calls. The calls are words filed in the database; no cut-off is given here.

Experiments:
[1] = molecular target: cTAR DNA; experiment: Binding affinity to HIV1 nucleocapsid protein (11 to 55 residues)-targeted Rh6G-5'-cTAR DNA-3'-Dabcyl assessed as inhibition of NC-induced viral Rh6G-5'-cTAR DNA-3'-Dabcyl destabilization by measuring fluorescence intensity up to 60 mins by fluorescence assay; assay type: nucleic-acid assay, Human immunodeficiency virus 1
[2] = Solubility of compound in water; assay type: physicochemical; details: buffer
[3] = test system: Human immunodeficiency virus 1; experiment: Antiviral activity against HIV1 3B infected in human MT4 cells assessed as protection against virus-induced cytopathic effect incubated for 5 days by MTT assay; assay type: functional, organism-based; details: Human immunodeficiency virus 1, 3B, MT4, 120 h
[4] = test system: PBS RNA; experiment: Binding affinity to HIV1 nucleocapsid protein (11 to 55 residues)-targeted Rh6G-5'-(+)-PBS-3'-Dabcyl/(-)-PBS assessed as inhibition of NC-promoted annealing of +/- PBS sequence at 4 uM by spectrofluorimetry analysis relative to control; assay type: nucleic-acid assay; details: Human immunodeficiency virus 1
[5] = test system: ssDNA; experiment: Competitive binding affinity to HIV1 S3G5 oligonucleotide assessed as apparent equilibrium dissociation constant of NC(11 to 55 residues) to S3G5 oligonucleotide at 20 uM and 20 degreeC by isothermal titration calorimetry (reference value: 0.15 +/- 0.1 microM); assay type: nucleic-acid assay; details: Human immunodeficiency virus 1
[6] = test system: ssDNA; experiment: Competitive binding affinity to HIV1 S3G5 oligonucleotide at 20 degreeC by isothermal titration calorimetry; assay type: nucleic-acid assay; details: Human immunodeficiency virus 1
[7] = molecular target: ssDNA; experiment: Competitive binding affinity to HIV1 S3G5 oligonucleotide assessed as equilibrium dissociation constant by isothermal titration calorimetry; assay type: nucleic-acid assay, Human immunodeficiency virus 1
[8] = test system: PBS RNA; experiment: Binding affinity to HIV1 propidium iodide-labeled double stranded (-)/(+)-PBS sequence by fluorescence anisotropy assay; assay type: nucleic-acid assay; details: Human immunodeficiency virus 1
[9] = test system: Human immunodeficiency virus 1; experiment: Binding affinity to HIV1 nucleocapsid protein (11 to 55 residues) assessed as increase in fluorescence intensity of Trp37 residue at 100 uM by fluorescence anisotropy assay
[10] = test system: cTAR DNA; experiment: Binding affinity to HIV1 propidium iodide-labeled-5'-cTAR DNA at cTAR to compound complex stoichiometry ratio of 1:3 using 30 mM NaCl by fluorescence anisotropy assay; assay type: nucleic-acid assay; details: Human immunodeficiency virus 1
[11] = test system: Human immunodeficiency virus 1; experiment: Binding affinity to HIV1 nucleocapsid protein (11 to 55 residues) assessed as change in fluorescence intensity of Trp37 residue up to 10 uM by fluorescence anisotropy assay
[12] = test system: Human immunodeficiency virus 1; experiment: Antiviral activity against HIV1 pNL4.3deltaenvLuc-ADA 8 pseudotyped virus infected in human U373-CD4-CCR5 cells assessed as reduction in viral infection measured after 48 hrs by luciferase assay; assay type: functional, organism-based; details: Human immunodeficiency virus 1, 48 h
[13] = test system: cTAR DNA; experiment: Binding affinity to HIV1 fluorescein-labeled-5'-cTAR DNA at cTAR to compound complex stoichiometry ratio of 1:3 using 150 mM NaCl by fluorescence anisotropy assay; assay type: nucleic-acid assay; details: Human immunodeficiency virus 1
[14] = Cytotoxicity against human U373 cells expressing CD4-CCR5 assessed as reduction in cell viability incubated for 48 hrs by luciferase assay; assay type: cell-based, U-373MG ATCC; details: U373 MG
[15] = Cytotoxicity against human MT4 cells assessed as reduction in cell viability incubated for 5 days by MTT assay; assay type: cell-based
[16] = test system: cTAR DNA; experiment: Binding affinity to HIV1 nucleocapsid protein (11 to 55 residues)-targeted Rh6G-5'-cTAR DNA-3'-Dabcyl/dTAR assessed as inhibition of NC-promoted annealing of Rh6G-5'-cTAR DNA-3'-Dabcyl/unlabeled dTAR at 4 uM after 25 hrs by spectrofluorimetry analysis relative to control; assay type: nucleic-acid assay; details: Human immunodeficiency virus 1
[17] = test system: cTAR DNA; experiment: Inhibition of annealing of HIV1 Rh6G5'-cTAR DNA-3'-Dabcyl/unlabeled dTAR at 4 uM after 25 hrs by spectrofluorimetry analysis; assay type: nucleic-acid assay; details: Human immunodeficiency virus 1
[18] = molecular target: cTAR DNA; experiment: Binding affinity to HIV1 fluorescein-labeled-5'-cTAR DNA at cTAR to compound complex stoichiometry ratio of 1:3 using 80 mM NaCl by fluorescence anisotropy assay; assay type: nucleic-acid assay, Human immunodeficiency virus 1
[19] = test system: ssDNA; experiment: Binding affinity to HIV1 single stranded fluorescein-labeled-5'-S3G5 oligonucleotide at 5'-S3G5 oligonucleotide to compound stoichiometry ratio of 1:3 by fluorescence anisotropy assay; assay type: nucleic-acid assay; details: Human immunodeficiency virus 1
[20] = test system: cTAR DNA; experiment: Binding affinity to HIV1 nucleocapsid protein (11 to 55 residues)-targeted Rh6G-5'-cTAR DNA-3'-Dabcyl/dTAR assessed as inhibition of NC-promoted annealing of Rh6G-5'-cTAR DNA-3'-Dabcyl/unlabeled dTAR at 0.4 uM by spectrofluorimetry analysis; assay type: nucleic-acid assay; details: Human immunodeficiency virus 1
[21] = molecular target: cTAR DNA; experiment: Binding affinity to HIV1 fluorescein-labeled-5'-cTAR DNA at cTAR to compound complex stoichiometry ratio of 1:3 using 30 mM NaCl by fluorescence anisotropy assay; assay type: nucleic-acid assay, Human immunodeficiency virus 1
[22] = Therapeutic index, ratio of CC50 for human U373 cells expressing CD4-CCR5 to IC50 for HIV1 pNL4.3deltaenvLuc-ADA 8 pseudotyped virus infected in human U373-CD4-CCR5 cells; assay type: toxicity, cell-based; details: read-out: Ratio CC50/IC50
[23] = test system: PBS RNA; experiment: Inhibition of annealing of HIV1 Rh6G-5'-(+)-PBS-3'-Dabcyl/(-)-PBS at 4 uM by spectrofluorimetry analysis relative to control; assay type: nucleic-acid assay; details: Human immunodeficiency virus 1
[24] = test system: ssDNA; experiment: Competitive binding affinity to HIV1 S3G5 oligonucleotide assessed as apparent equilibrium dissociation constant of NC(11 to 55 residues) to S3G5 oligonucleotide at 5 uM and 20 degreeC by isothermal titration calorimetry (reference value: 0.15 +/ 0.1 microM); assay type: nucleic-acid assay; details: Human immunodeficiency virus 1
[25] = test system: Human immunodeficiency virus 1; experiment: Binding affinity to HIV1 nucleocapsid protein (11 to 55 residues) assessed as change in fluorescence intensity of Trp37 residue up to 100 uM by fluorescence based analysis

Compound: CCc1c(CN[C@@H]2CCCC[C@H]2N)c(CC)c2c(CC)c1CN[C@@H]1CCCC[C@H]1NCc1ccc([nH]1)CN[C@@H]1CCCC[C@H]1NC2
- IC50 [1]: 60 µM

Compound: c1c[nH]c(CNCc2c(CNCc3ccc[nH]3)c(CNCc3ccc[nH]3)c(CNCc3ccc[nH]3)c(CNCc3ccc[nH]3)c2CNCc2ccc[nH]2)c1
- IC50 [1]: 52 µM

Compound: CCc1c(CN)c(CC)c2c(CC)c1CNCc1ccc([nH]1)CNCc1c(CC)c(CNCc3ccc[nH]3)c(CC)c(c1CC)CNCc1ccc([nH]1)CNC2
- solubility [2]: Soluble
- IC50 [3]: 13.5 µM
- inhibition [4]: 100%
- Kapp [5]: 12 µM
- IC50 [1]: 4.4 µM
- Activity [6]: Dose-dependent effect
- Kd [7]: 0.26 µM
- Activity [8]: inactive
- Activity [9]: Active
- Activity [10]: Active
- Activity [11]: inactive
- IC50 [12]: 1.8 µM
- Activity [13]: inactive
- IC50 [14]: 15 µM
- CC50 at 120 h [15]: 24 µM
- inhibition [16]: 100%
- inhibition [17]: Active
- Kd [18]: 2 µM
- K [19]: 0.6 µM
- Activity [20]: Active
- Kd [21]: 0.23 µM
- selectivity ratio [22]: 8
- inhibition [23]: 100%
- Kapp [24]: 1.5 µM
- Activity [25]: inactive

Compound: CCc1c(CN)c(CC)c2c(CC)c1CNCc1ccc([nH]1)CNCc1c(CC)c(CN)c(CC)c(c1CC)CNCc1ccc([nH]1)CNC2
- IC50 [1]: 4.9 µM

Compound: c1c[nH]c(CNCc2ccc(CNCc3ccc[nH]3)c3c(CNCc4ccc[nH]4)ccc(CNCc4ccc[nH]4)c23)c1
- IC50 [1]: 10 µM

Compound: CCc1c(CNCc2ccc[nH]2)c(CC)c2c(CC)c1CNCc1ccc([nH]1)CNCc1c(CC)c(CNCc3ccc[nH]3)c(CC)c(c1CC)CNCc1ccc([nH]1)CNC2
- IC50 [1]: 17 µM

Compound: CCc1c2c(CC)c(CN[C@H]3CCCC[C@@H]3N)c(CC)c1CN[C@H]1CCCC[C@@H]1NCc1ccc([nH]1)CN[C@H]1CCCC[C@@H]1NC2
- IC50 [1]: 63 µM

Compound: CCc1c(CNCc2ccc[nH]2)c(CC)c(CNCc2ccc[nH]2)c(CC)c1CNCc1ccc[nH]1
- IC50 [1]: 150 µM

Compound: CCc1c(CNCCNCc2ccc[nH]2)c(CC)c(CNCCNCc2ccc[nH]2)c(CC)c1CNCCNCc1ccc[nH]1
- IC50 [1]: 58 µM

Compound: CCc1c(CN[C@@H]2CCCC[C@H]2NCc2ccc[nH]2)c(CC)c(CN[C@@H]2CCCC[C@H]2NCc2ccc[nH]2)c(CC)c1CN[C@@H]1CCCC[C@H]1NCc1ccc[nH]1
- IC50 [1]: 96 µM

Compound: CCc1c(CN[C@H]2CCCC[C@@H]2NCc2ccc[nH]2)c(CC)c(CN[C@H]2CCCC[C@@H]2NCc2ccc[nH]2)c(CC)c1CN[C@H]1CCCC[C@@H]1NCc1ccc[nH]1
- IC50 [1]: 93 µM

Compound: c1c[nH]c(CNCc2cc(CNCc3ccc[nH]3)c(CNCc3ccc[nH]3)c(CNCc3ccc[nH]3)c2)c1
- IC50 [1]: 130 µM
